≈ marks a conversion by molar mass, not a printed value.

Test [1] relates to Escherichia coli. Description: Antimicrobial activity against Escherichia coli. Format: functional.
Test [2] deals with Pseudomonas aeruginosa. Description: Antimicrobial activity against Pseudomonas aeruginosa. Format: functional, organism-based.
In test [3] the test system is Lipopolysaccharide (LPS). Description: Displacement of dansyl-PMB from LPS by fluorometric assay.
The target in test [4] is Lipopolysaccharide (LPS). Description: Displacement of dansyl-PMB from LPS by isothermal titration calorimetry. The note with it: read-out: IC50.
For test [5], the system named is Escherichia coli. Description: Antimicrobial activity against Escherichia coli assessed as relative sensitizing activity. The format is functional.

As for `CCCNCC[C@@H]1NC(=O)[C@H](CCN)NC(=O)[C@H](CC(C)C)NC(=O)[C@@H](Cc2ccccc2)NC(=O)[C@H](CCN)NC(=O)[C@@H](NC(=O)[C@H](CCN)NC(=O)[C@@H](NC(=O)[C@H](CCN)NC(=O)CCCCC(C)CC)[C@@H](C)O)CCNC(=O)[C@H]([C@@H](C)O)NC1=O` (some centres undefined), the minimal inhibitory concentration (MIC) in test [1] came out at 0.995 µg/mL (≈ 0.799 µM); in test [2], 0.763 µg/mL (≈ 0.613 µM). The molecule further yielded a dansyl-PMB displacement concentration in test [3] of 9.5 µg/mL.
Regarding `CC(C)C[C@@H]1NC(=O)[C@@H](Cc2ccccc2)NC(=O)[C@H](CCCCN)NC(=O)[C@@H](NC(=O)[C@H](CCCCN)NC(=O)[C@@H](N)[C@@H](C)O)CCNC(=O)[C@H]([C@@H](C)O)NC(=O)[C@H](CCN)NC(=O)[C@H](CCN)NC1=O`, the IC50 in test [4] stood at 15 µM. Further, in test [5], the Activity is listed as 4%.
Consider `CCC(C)CCCCC(=O)N[C@@H](CCNC(=O)C(N)CCCNC(=N)N)C(=O)N[C@H](C(=O)N[C@@H](CCN)C(=O)N[C@H]1CCNC(=O)[C@H]([C@@H](C)O)NC(=O)[C@H](CCN)NC(=O)[C@H](CCN)NC(=O)[C@H](CC(C)C)NC(=O)[C@@H](Cc2ccccc2)NC(=O)[C@H](CCN)NC1=O)[C@@H](C)O` (some centres undefined), for which the values for the MIC in test [1] and in test [2] were 0.453 µg/mL (≈ 0.333 µM) and 0.207 µg/mL (≈ 0.152 µM), respectively. This molecule came in with a dansyl-PMB displacement concentration in test [3] of 4.48 µg/mL.
As to `CC(C)C[C@@H]1NC(=O)[C@@H](Cc2ccccc2)NC(=O)[C@H](CN)NC(=O)[C@@H](NC(=O)[C@H](CN)NC(=O)[C@@H](N)[C@@H](C)O)CNC(=O)[C@H]([C@@H](C)O)NC(=O)[C@H](CN)NC(=O)[C@H](CN)NC1=O`, in test [4], the IC50 was found to be 30 µM. Moreover, in test [5], the Activity is 11%.
Turning to `CCC(C)CCCCC(=O)N[C@@H](CCNC(=O)C(N)CCCCNC(=O)OCc1ccccc1)C(=O)N[C@H](C(=O)N[C@@H](CCN)C(=O)N[C@H]1CCNC(=O)[C@H]([C@@H](C)O)NC(=O)[C@H](CCN)NC(=O)[C@H](CCN)NC(=O)[C@H](CC(C)C)NC(=O)[C@@H](Cc2ccccc2)NC(=O)[C@H](CCN)NC1=O)[C@@H](C)O` (some centres undefined), the MIC is 0.206 µg/mL (≈ 0.141 µM) in test [1] and 0.175 µg/mL (≈ 0.119 µM) in test [2]. For the same molecule, in test [3], the dansyl-PMB displacement concentration worked out at 1.12 µg/mL.
Regarding `CC(C)C[C@@H]1NC(=O)[C@@H](Cc2ccccc2)NC(=O)[C@H](CCN)NC(=O)[C@@H](NC(=O)[C@H](CCN)NC(=O)[C@@H](N)[C@@H](C)O)CCNC(=O)[C@H]([C@@H](C)O)NC(=O)[C@H](CCN)NC(=O)[C@H](CCN)NC1=O` (stereo in doubt; 202) [POLYMYXIN B NONAPEPTIDE], the IC50 in test [4] was found to be 8 µM. Besides, the Activity in test [5] came to 5%.
Consider `CC(C)C[C@@H]1NC(=O)[C@@H](Cc2ccccc2)NC(=O)[C@H](CCCCN)NC(=O)[C@@H](NC(=O)[C@H](CCCCN)NC(=O)[C@@H](N)[C@@H](C)O)CCNC(=O)[C@H]([C@@H](C)O)NC(=O)[C@H](CCCCN)NC(=O)[C@H](CCCCN)NC1=O`, for which, in test [4], the IC50 worked out at 30 µM. The Activity in test [5] stood at 5%.
As for `CC(C)C[C@@H]1NC(=O)[C@@H](Cc2ccccc2)NC(=O)[C@H](CCN)NC(=O)[C@@H](NC(=O)[C@H](CCN)NC(=O)[C@@H](N)[C@@H](C)O)CCNC(=O)[C@H]([C@@H](C)O)NC(=O)[C@H](CCCCN)NC(=O)[C@H](CCCCN)NC1=O`, the IC50 in test [4] was 12 µM. Further, the Activity in test [5] turned out to be 40%.
For `CCCNCC[C@H](NC(=O)CCCCC(C)CC)C(=O)N[C@H](C(=O)N[C@@H](CCN)C(=O)N[C@H]1CCNC(=O)[C@H]([C@@H](C)O)NC(=O)[C@H](CCN)NC(=O)[C@H](CCN)NC(=O)[C@H](CC(C)C)NC(=O)[C@@H](Cc2ccccc2)NC(=O)[C@H](CCN)NC1=O)[C@@H](C)O` (some centres undefined), the results for the minimal inhibitory concentration (MIC) in test [1] and in test [2] were 0.208 µg/mL (≈ 0.167 µM) and 0.206 µg/mL (≈ 0.165 µM), respectively. This molecule also returned a dansyl-PMB displacement concentration in test [3] of 2.4 µg/mL.
As to `CCC(C)CCCCC(=O)N[C@@H](CCNC(=O)CN)C(=O)N[C@H](C(=O)N[C@@H](CCN)C(=O)N[C@H]1CCNC(=O)[C@H]([C@@H](C)O)NC(=O)[C@H](CCN)NC(=O)[C@H](CCN)NC(=O)[C@H](CC(C)C)NC(=O)[C@@H](Cc2ccccc2)NC(=O)[C@H](CCN)NC1=O)[C@@H](C)O` (some centres undefined), the MIC is 0.028 µg/mL (≈ 0.0222 µM) in test [1] and 0.033 µg/mL (≈ 0.0262 µM) in test [2]. The dansyl-PMB displacement concentration in test [3] turned out to be 8 µg/mL.
Consider `CC(C)C[C@@H]1NC(=O)[C@@H](Cc2ccccc2)NC(=O)[C@H](CCN)NC(=O)[C@H](CCN)NC(=O)[C@H](NC(=O)[C@@H](N)[C@@H](C)O)CCNC(=O)[C@H]([C@@H](C)O)NC(=O)[C@H](CCN)NC(=O)[C@H](CCN)NC1=O`, for which, in test [4], the IC50 came out at 8 µM. For the same molecule, in test [5], the Activity is 7%.
For `CC(C)C[C@@H]1NC(=O)[C@@H](Cc2ccccc2)NC(=O)[C@H](CC(=N)N)NC(=O)[C@@H](NC(=O)[C@H](CC(=N)N)NC(=O)[C@@H](N)[C@@H](C)O)CCNC(=O)[C@H]([C@@H](C)O)NC(=O)[C@H](CC(=N)N)NC(=O)[C@H](CC(=N)N)NC1=O`, in that order: 3.8 µM and 25%.
Regarding `CCNCC[C@H](NC(=O)CCCCC(C)CC)C(=O)N[C@H](C(=O)N[C@@H](CCN)C(=O)N[C@H]1CCNC(=O)[C@H]([C@@H](C)O)NC(=O)[C@H](CCN)NC(=O)[C@H](CCN)NC(=O)[C@H](CC(C)C)NC(=O)[C@@H](Cc2ccccc2)NC(=O)[C@H](CCN)NC1=O)[C@@H](C)O` (some centres undefined), the MIC in test [1] turned out to be 0.112 µg/mL (≈ 0.0909 µM); in test [2], 0.146 µg/mL (≈ 0.119 µM). The dansyl-PMB displacement concentration in test [3] was found to be 2.3 µg/mL.
Regarding `CCNCC[C@@H]1NC(=O)[C@H](CCN)NC(=O)[C@H](CC(C)C)NC(=O)[C@@H](Cc2ccccc2)NC(=O)[C@H](CCN)NC(=O)[C@@H](NC(=O)[C@H](CCN)NC(=O)[C@@H](NC(=O)[C@H](CCN)NC(=O)CCCCC(C)CC)[C@@H](C)O)CCNC(=O)[C@H]([C@@H](C)O)NC1=O` (some centres undefined), the values for the minimum inhibitory concentration (MIC) in test [1] and in test [2] were 0.492 µg/mL (≈ 0.399 µM) and 0.413 µg/mL (≈ 0.335 µM), respectively. In test [3], this molecule displayed a dansyl-PMB displacement concentration of 9.5 µg/mL.
For the molecule `CCC(C)CCCCC(=O)N[C@@H](CCNC(C)=O)C(=O)N[C@H](C(=O)N[C@@H](CCN)C(=O)N[C@H]1CCNC(=O)[C@H]([C@@H](C)O)NC(=O)[C@H](CCN)NC(=O)[C@H](CCN)NC(=O)[C@H](CC(C)C)NC(=O)[C@@H](Cc2ccccc2)NC(=O)[C@H](CCN)NC1=O)[C@@H](C)O` (some centres undefined), the MIC was determined as 1.3 µg/mL (≈ 1.04 µM) in test [1] and 2.8 µg/mL (≈ 2.25 µM) in test [2]. Moreover, the dansyl-PMB displacement concentration in test [3] was found to be 2.8 µg/mL.
As to `CC(C)C[C@@H]1NC(=O)[C@@H](Cc2ccccc2)NC(=O)[C@H](CCCCN)NC(=O)CN(C(=O)[C@H](CCCCN)NC(=O)[C@@H](N)[C@@H](C)O)CCCCNC(=O)[C@@H]([C@H](C)O)NC(=O)[C@H](CCCCN)NC(=O)[C@H](CCCCN)NC1=O`, in test [4], the IC50 stood at 35 µM. Also, the Activity in test [5] is reported as 4%.
Take `CC(C)C[C@@H]1NC(=O)[C@@H](Cc2ccccc2)NC(=O)[C@H](CCCCN)NC(=O)[C@@H](NC(=O)[C@H](CCCCN)NC(=O)[C@@H](N)[C@@H](C)O)CCNC(=O)[C@@H]([C@H](C)O)NC(=O)[C@H](CCN)NC(=O)[C@H](CCN)NC1=O`: the IC50 in test [4] came to 14 µM. In addition, the Activity in test [5] is 9%.
Take `CC(C)C[C@@H]1NC(=O)[C@@H](Cc2ccccc2)NC(=O)[C@H](CCCN)NC(=O)CN(C(=O)[C@H](CCCN)NC(=O)[C@@H](N)[C@@H](C)O)CCCNC(=O)[C@@H]([C@H](C)O)NC(=O)[C@H](CCCN)NC(=O)[C@H](CCCN)NC1=O`: in test [4], the IC50 came out at 25 µM. The Activity in test [5] is 2%.

For the origin of these results see ChEMBL document CHEMBL1156251, “Structure--activity relationships of polymyxin antibiotics” (J Med Chem, 2010).
